ChEMBL document CHEMBL3046025, “Fungitoxic Properties of N-Phenylformamidoximes in Control of Benzimidazole-Resistant Isolates of Fungi” (1992)

Key:
Type in all cases: functional
Botrytis cinerea [1] = assay: Antifungal activity against Benzimidalzole-sensitive Botryotinia fuckeliana isolate Bc-9 infected kidney bean leaves at 12.5 ppm 24 hr post-infection measured after 3 days
Cercospora beticola [2] = assay: Antifungal activity against Benzimidalzole-sensitive Cercospora beticola isolate 18-1 infected in sugar beet seedlings at 3.1 ppm 24 hr-post inoculation
Cercospora beticola [3] = assay: Antifungal activity against Benzimidalzole-sensitive Cercospora beticola isolate 18-1 infected in sugar beet seedlings at 12.5 ppm 24 hr-post inoculation
Cercospora beticola [4] = assay: Antifungal activity against Benzimidalzole-sensitive Cercospora beticola isolate 18-1 infected in sugar beet seedlings at 50 ppm 24 hr-post inoculation
Cercospora beticola [5] = assay: Antifungal activity against Benzimidalzole-sensitive Cercospora beticola isolate 18-1 infected in sugar beet seedlings at 200 ppm 24 hr-post inoculation
Botrytis cinerea [6] = assay: Antifungal activity against Benzimidalzole-sensitive Botryotinia fuckeliana isolate Bc-9 infected kidney bean leaves at 200 ppm applied as soil drench 3 days prior to inoculation
Botrytis cinerea [7] = assay: Antifungal activity against Benzimidalzole-sensitive Botryotinia fuckeliana isolate Bc-9 infected kidney bean leaves at 200 ppm treated as foliar application followed by incubation for 7 days in green house condition
Botrytis cinerea [8] = assay: Antifungal activity against Benzimidalzole-sensitive Botryotinia fuckeliana isolate Bc-9 infected compound-treated kidney bean leaves at 12.5 ppm after 4 days
Botrytis cinerea [9] = assay: Antifungal activity against Benzimidalzole-sensitive Botryotinia fuckeliana isolate Bc-9 infected compound-treated kidney bean leaves at 50 ppm after 4 days
Botrytis cinerea [10] = assay: Antifungal activity against Benzimidalzole-sensitive Botryotinia fuckeliana isolate Bc-9 infected compound-treated kidney bean leaves at 200 ppm after 4 days
Botrytis cinerea [11] = assay: Antifungal activity against Benzimidalzole-resistant Botryotinia fuckeliana isolate Bc-44 infected compound-treated kidney bean leaves at 12.5 ppm after 4 days
Botrytis cinerea [12] = assay: Antifungal activity against Benzimidalzole-resistant Botryotinia fuckeliana isolate Bc-44 infected compound-treated kidney bean leaves at 50 ppm after 4 days
Botrytis cinerea [13] = assay: Antifungal activity against Benzimidalzole-resistant Botryotinia fuckeliana isolate Bc-44 infected compound-treated kidney bean leaves at 200 ppm after 4 days
Botrytis cinerea [14] = assay: Antifungal activity against Benzimidalzole-resistant Botryotinia fuckeliana isolate Bc-20 infected compound-treated kidney bean leaves at 12.5 ppm after 4 days
Botrytis cinerea [15] = assay: Antifungal activity against Benzimidalzole-resistant Botryotinia fuckeliana isolate Bc-20 infected compound-treated kidney bean leaves at 200 ppm after 4 days
Botrytis cinerea [16] = assay: Antifungal activity against Benzimidalzole-resistant Botryotinia fuckeliana isolate Bc-20 infected compound-treated kidney bean leaves at 50 ppm after 4 days
Cercospora beticola [17] = assay: Antifungal activity against Benzimidalzole-sensitive Cercospora beticola isolate 18-1 infected in sugar beet seedlings at 200 ppm applied as soil drench 3 days prior to inoculation
Cercospora beticola [18] = assay: Antifungal activity against Benzimidalzole-sensitive Cercospora beticola isolate 18-1 infected in sugar beet seedlings at 12.5 ppm treated as foliar application 7 days prior to inoculation
Cercospora beticola [19] = assay: Antifungal activity against Benzimidalzole-sensitive Cercospora beticola isolate 18-1 infected in sugar beet seedlings at 50 ppm treated as foliar application 7 days prior to inoculation
Cercospora beticola [20] = assay: Antifungal activity against Benzimidalzole-sensitive Cercospora beticola isolate 18-1 infected in sugar beet seedlings at 200 ppm treated as foliar application 7 days prior to inoculation
Cercospora beticola [21] = assay: Antifungal activity against Benzimidalzole-sensitive Cercospora beticola isolate 18-1 infected in compound-treated sugar beet seedlings at 200 ppm after 12 days
Cercospora beticola [22] = assay: Antifungal activity against Benzimidalzole-sensitive Cercospora beticola isolate 18-1 infected in compound-treated sugar beet seedlings at 50 ppm after 12 days
Cercospora beticola [23] = assay: Antifungal activity against Benzimidalzole-sensitive Cercospora beticola isolate 18-1 infected in compound-treated sugar beet seedlings at 12.5 ppm after 12 days
Botrytis cinerea [24] = assay: Antifungal activity against Benzimidalzole-sensitive Botryotinia fuckeliana isolate Bc-9 infected kidney bean leaves at 50 ppm 24 hr post-infection measured after 3 days
Botrytis cinerea [25] = assay: Antifungal activity against Benzimidalzole-sensitive Botryotinia fuckeliana isolate Bc-9 infected kidney bean leaves at 200 ppm 24 hr post-infection measured after 3 days
Cercospora beticola [26] = assay: Antifungal activity against Benzimidalzole-resistant Cercospora beticola isolate 18-2 infected in compound-treated sugar beet seedlings at 50 ppm after 12 days
Cercospora beticola [27] = assay: Antifungal activity against Benzimidalzole-resistant Cercospora beticola isolate 18-2 infected in compound-treated sugar beet seedlings at 200 ppm after 12 days
Cercospora beticola [28] = assay: Antifungal activity against Benzimidalzole-resistant Cercospora beticola isolate Cb-19 infected in compound-treated sugar beet seedlings at 50 ppm after 12 days
Cercospora beticola [29] = assay: Antifungal activity against Benzimidalzole-resistant Cercospora beticola isolate Cb-19 infected in compound-treated sugar beet seedlings at 200 ppm after 12 days
Cercospora beticola [30] = assay: Antifungal activity against Benzimidalzole-resistant Cercospora beticola isolate 20-2 infected in compound-treated sugar beet seedlings at 3.1 ppm after 12 days
Cercospora beticola [31] = assay: Antifungal activity against Benzimidalzole-resistant Cercospora beticola isolate 20-2 infected in compound-treated sugar beet seedlings at 12.5 ppm after 12 days
Cercospora beticola [32] = assay: Antifungal activity against Benzimidalzole-resistant Cercospora beticola isolate 20-2 infected in compound-treated sugar beet seedlings at 50 ppm after 12 days
Cercospora beticola [33] = assay: Antifungal activity against Benzimidalzole-resistant Cercospora beticola isolate 20-2 infected in compound-treated sugar beet seedlings at 200 ppm after 12 days
Cercospora beticola [34] = assay: Antifungal activity against Benzimidalzole-sensitive Cercospora beticola isolate 18-1 infected in compound-treated sugar beet seedlings at 3.1 ppm after 12 days
Cercospora beticola [35] = assay: Antifungal activity against Benzimidalzole-resistant Cercospora beticola isolate Cb-19 infected in sugar beet seedlings at 12.5 ppm treated as foliar application 7 days prior to inoculation
Cercospora beticola [36] = assay: Antifungal activity against Benzimidalzole-resistant Cercospora beticola isolate Cb-19 infected in sugar beet seedlings at 50 ppm treated as foliar application 7 days prior to inoculation
Cercospora beticola [37] = assay: Antifungal activity against Benzimidalzole-resistant Cercospora beticola isolate Cb-19 infected in sugar beet seedlings at 200 ppm treated as foliar application 7 days prior to inoculation
Cercospora beticola [38] = assay: Antifungal activity against Benzimidalzole-resistant Cercospora beticola isolate Cb-19 infected in sugar beet seedlings at 200 ppm 24 hr-post inoculation
Cercospora beticola [39] = assay: Antifungal activity against Benzimidalzole-resistant Cercospora beticola isolate Cb-19 infected in sugar beet seedlings at 200 ppm applied as soil drench 3 days prior to inoculation
Cercospora beticola [40] = assay: Antifungal activity against Benzimidalzole-resistant Cercospora beticola isolate 18-2 infected in compound-treated sugar beet seedlings at 3.1 ppm after 12 days
Cercospora beticola [41] = assay: Antifungal activity against Benzimidalzole-resistant Cercospora beticola isolate 18-2 infected in compound-treated sugar beet seedlings at 12.5 ppm after 12 days
Cercospora beticola [42] = assay: Antifungal activity against Benzimidalzole-resistant Cercospora beticola isolate Cb-19 infected in compound-treated sugar beet seedlings at 3.1 ppm after 12 days
Cercospora beticola [43] = assay: Antifungal activity against Benzimidalzole-resistant Cercospora beticola isolate Cb-19 infected in compound-treated sugar beet seedlings at 12.5 ppm after 12 days
Botrytis cinerea [44] = assay: Antifungal activity against Benzimidalzole-resistant Botryotinia fuckeliana isolate Bc-44 infected kidney bean leaves at 12.5 ppm treated as foliar application followed by incubation for 7 days in green house condition
Botrytis cinerea [45] = assay: Antifungal activity against Benzimidalzole-resistant Botryotinia fuckeliana isolate Bc-44 infected kidney bean leaves at 50 ppm treated as foliar application followed by incubation for 7 days in green house condition
Botrytis cinerea [46] = assay: Antifungal activity against Benzimidalzole-resistant Botryotinia fuckeliana isolate Bc-44 infected kidney bean leaves at 200 ppm treated as foliar application followed by incubation for 7 days in green house condition
Botrytis cinerea [47] = assay: Antifungal activity against Benzimidalzole-resistant Botryotinia fuckeliana isolate Bc-44 infected kidney bean leaves at 50 ppm applied as soil drench 3 days prior to inoculation
Botrytis cinerea [48] = assay: Antifungal activity against Benzimidalzole-resistant Botryotinia fuckeliana isolate Bc-44 infected kidney bean leaves at 200 ppm applied as soil drench 3 days prior to inoculation
Botrytis cinerea [49] = assay: Antifungal activity against Benzimidalzole-resistant Botryotinia fuckeliana isolate Bc-20 infected compound-treated kidney bean leaves at 3.1 ppm after 4 days
Botrytis cinerea [50] = assay: Antifungal activity against Benzimidalzole-sensitive Botryotinia fuckeliana isolate Bc-9 infected compound-treated kidney bean leaves at 3.1 ppm after 4 days
Botrytis cinerea [51] = assay: Antifungal activity against Benzimidalzole-resistant Botryotinia fuckeliana isolate Bc-44 infected kidney bean leaves at 3.1 ppm 24 hr post-infection measured after 3 days
Botrytis cinerea [52] = assay: Antifungal activity against Benzimidalzole-resistant Botryotinia fuckeliana isolate Bc-44 infected kidney bean leaves at 12.5 ppm 24 hr post-infection measured after 3 days
Botrytis cinerea [53] = assay: Antifungal activity against Benzimidalzole-resistant Botryotinia fuckeliana isolate Bc-44 infected kidney bean leaves at 50 ppm 24 hr post-infection measured after 3 days
Botrytis cinerea [54] = assay: Antifungal activity against Benzimidalzole-resistant Botryotinia fuckeliana isolate Bc-44 infected kidney bean leaves at 200 ppm 24 hr post-infection measured after 3 days
Botrytis cinerea [55] = assay: Antifungal activity against Benzimidalzole-resistant Botryotinia fuckeliana isolate Bc-44 infected compound-treated kidney bean leaves at 3.1 ppm after 4 days

Compound | Activity (Botrytis cinerea [8]) | Activity (Botrytis cinerea [9]) | Activity (Botrytis cinerea [10]) | Activity (Botrytis cinerea [11]) | Activity (Botrytis cinerea [12]) | Activity (Botrytis cinerea [13]) | Activity (Botrytis cinerea [14]) | Activity (Botrytis cinerea [15]) | Activity (Botrytis cinerea [16]) | Activity (Cercospora beticola [21]) | Activity (Cercospora beticola [22]) | Activity (Cercospora beticola [23]) | Activity (Cercospora beticola [26]) | Activity (Cercospora beticola [27]) | Activity (Cercospora beticola [28]) | Activity (Cercospora beticola [29]) | Activity (Cercospora beticola [30]) | Activity (Cercospora beticola [31]) | Activity (Cercospora beticola [32]) | Activity (Cercospora beticola [33]) | also measured
COC(=O)NC(=S)Nc1ccccc1NC(=S)NC(=O)OC [THIOPHANATE METHYL] | 35% | 84% | 96% | 0% | 0% | 5% | 0% | 17% | 7% | 100% | 100% | 88% | 0% | 0% | 0% | 0% | 0% | 12% | 56% | 78% | Activity (Botrytis cinerea [1]): 73%; Activity (Cercospora beticola [2]): 13%; Activity (Cercospora beticola [3]): 75%; Activity (Cercospora beticola [4]): 100%; Activity (Cercospora beticola [5]): 100%; Activity (Botrytis cinerea [6]): 51%; Activity (Botrytis cinerea [7]): 93%; Activity (Cercospora beticola [17]): 64%; Activity (Cercospora beticola [18]): 25%; Activity (Cercospora beticola [19]): 84%; Activity (Cercospora beticola [20]): 88%; Activity (Botrytis cinerea [24]): 84%; Activity (Botrytis cinerea [25]): 84%; Activity (Cercospora beticola [34]): 68%
TRIPHENYLSTANNANOL | – | – | – | – | – | – | – | – | – | 100% | 100% | 88% | 100% | 100% | 100% | 100% | 69% | 94% | 100% | 100% | Activity (Cercospora beticola [35]): 65%; Activity (Cercospora beticola [36]): 90%; Activity (Cercospora beticola [37]): 100%; Activity (Cercospora beticola [38]): 0%; Activity (Cercospora beticola [39]): 0%; Activity (Cercospora beticola [40]): 56%; Activity (Cercospora beticola [41]): 80%; Activity (Cercospora beticola [42]): 60%; Activity (Cercospora beticola [43]): 78%; Activity (Cercospora beticola [34]): 75%
C=CC1(C)OC(=O)N(c2cc(Cl)cc(Cl)c2)C1=O (stereo unspecified) [VINCLOZOLIN] | 90% | 100% | 100% | 77% | 100% | 100% | 82% | 100% | 100% | – | – | – | – | – | – | – | – | – | – | – | Activity (Botrytis cinerea [44]): 45%; Activity (Botrytis cinerea [45]): 75%; Activity (Botrytis cinerea [46]): 91%; Activity (Botrytis cinerea [47]): 56%; Activity (Botrytis cinerea [48]): 93%; Activity (Botrytis cinerea [49]): 31%; Activity (Botrytis cinerea [50]): 39%; Activity (Botrytis cinerea [51]): 70%; Activity (Botrytis cinerea [52]): 97%; Activity (Botrytis cinerea [53]): 100%; Activity (Botrytis cinerea [54]): 100%; Activity (Botrytis cinerea [55]): 21%
